PubChem BioAssay AID1918986 (Small Molecule Screening Facility, UW Madison, 2023)
Active and inactive are the calls of the source.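 How the source made its calls: active means full-shape inhibition curve with partial efficacy, or partial curve whose IC50 upper confidence bound lies within tested doses; inactive means the rest.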

Target: Klebsiella pneumoniae PriA-SSB C-terminal tail interaction
Assay: inhibitors of PriA–SSB C-terminal tail binding, dose response, biochemical, AlphaScreen, virtual screen prioritized set (AID 1918986)
Settings: PriA binding to biotinylated SSBct peptide

Row | Structure (SMILES) | IC50 | outcome
1 | COc1cc([N+](=O)[O-])c(C(=O)Nc2nc(-c3ccccn3)cs2)cc1SC | 7.02 µM | 
2 | Cc1ccc(-c2nc(SCC(=O)NCc3ccnc(-c4ccccn4)n3)n[nH]2)cc1 | 37.8 µM | 
3 | CSCC(CCO)Nc1ccnc2c1ccc1cccnc12 (stereo not drawn) | 10.8 µM | 
4 | CCOC(=O)c1c(C)[nH]c(C(=O)CSc2cccc3cccnc23)c1C |  | inactive
5 | Nc1ncc(-c2ccccn2)cn1 |  | inactive
6 | O=C(O)c1cc(C(=O)N2CCS(=O)(=O)CC2)ccn1 |  | inactive
7 | CCc1nc(C)c(CSc2cccc3cccnc23)o1 |  | inactive
8 | Cc1cc(-c2ccccn2)n[nH]1 |  | inactive
9 | CC1Sc2ccc(C(=O)Nc3nc(-c4ccccn4)cs3)cc2NC1=O (stereo not drawn) | 7.99 µM | 
10 | Cc1nn(C(C)C)cc1-c1ccc2cccnc2c1C |  | inactive
11 | Clc1cccnc1NN=Cc1ccccn1 |  | inactive
12 | O=[N+]([O-])c1ccc(SC2CCCCC2)c2ncccc12 | inactive | 
13 | Cc1cccc2nc(CSc3cccc4cccnc34)cn12 |  | inactive
14 | CC(C)c1ncc(-c2cccc3cccnc23)n1C |  | inactive
15 | Cc1c(N)nc(-c2ccccn2)nc1NCC1CCC(C2CC2)O1 (stereo not drawn) | 5.44 µM | 
16 | Fc1cccc2[nH]c(-c3ccccn3)nc12 |  | inactive
17 | c1cnc2c(SCc3ccn4ncnc4c3)cccc2c1 |  | inactive
18 | O=C(O)c1cc(-c2ccccc2)ccn1 | 21 µM | 
19 | O=c1[nH]ncc(NN=Cc2ccccn2)c1Cl |  | inactive
20 | CC1CC(Nc2nc(-c3ccccn3)cs2)C1 (stereo not drawn) | 13.1 µM | 
21 | c1cncc(CSCc2cccc3cccnc23)c1 |  | inactive
22 | c1cc(CSc2cccc3cccnc23)cc(CN2CCOCC2)c1 |  | inactive
23 | O[C@@H]1COC[C@@H]1Nc1ccc2ccc3cccnc3c2n1 | 4.26 µM | 

Row | Structure (SMILES) | IC50 | outcome
24 | Cc1ccc(-n2nc(C)cc2NC(=O)CSc2cccc3cccnc23)cc1 |  | inactive
25 | C(=NNc1ncnc2sccc12)c1ccccn1 | 2.68 µM | 
26 | c1ccc(-c2ncc[nH]2)nc1 | 15.7 µM | 
27 | O=c1[nH]c(NN=Cc2ccccn2)nc2ccccc12 |  | inactive
28 | CC(C)N(C)S(=O)(=O)c1ccc(F)c(C(=O)Nc2nc(-c3ccccn3)cs2)c1 | 6.82 µM | 
29 | O=[N+]([O-])c1cc(Cl)cc(C=Nc2ccc(Cl)c3ncccc23)c1O |  | inactive
30 | Cc1cc(C)cc(OCCN(C)C(=O)CSc2cccc3cccnc23)c1 |  | inactive
31 | C1=C(c2cccc3cccnc23)CCNC1 |  | inactive
32 | OCCC(Nc1ccnc2c1ccc1cccnc12)C(F)F (stereo not drawn) | 4.48 µM | 
33 | CC1(C)CC(CSc2cccc3cccnc23)=NO1 |  | inactive
34 | c1cnc2c(Cn3ccnc3)cccc2c1 |  | inactive
35 | Clc1ccc(CN2CCOCCOCC2)c2ncccc12 |  | inactive
36 | c1ccc(-c2cnc3n2CCC3)nc1 |  | inactive
37 | CSCC(CCO)Nc1ccc2ccc3cccnc3c2n1 (stereo not drawn) | 9.08 µM | 
38 | c1cnc2c(SCCn3cncn3)cccc2c1 |  | inactive
39 | CCOC(=O)c1[nH]c(C)c(C(=O)CSc2cccc3cccnc23)c1C |  | inactive
40 | O=C(Nc1nc(-c2ccccn2)cs1)C1(C2CCCCO2)CCCO1 (stereo not drawn) |  | inactive
41 | FC(F)(F)c1cnc(NN=Cc2ccccn2)c(Cl)c1 | 20.2 µM | 
42 | c1ccc(-c2csc(NC3COC4(CCC4)C3)n2)nc1 (stereo not drawn) |  | inactive
43 | CC(C)(C)c1ncc(-c2cccc3cccnc23)o1 |  | inactive
44 | COC(C)COc1ccc2ccc3cccnc3c2n1 (stereo not drawn) |  | inactive
45 | O=C(Nc1nc(-c2ccccn2)cs1)c1ccc(Cl)c(S(=O)(=O)NCC2CCCO2)c1 (stereo not drawn) | 10 µM | 
46 | C(=NNc1ncnc2nc[nH]c12)c1ccccn1 | 1.29 µM | 

Row | Structure (SMILES) | IC50 | outcome
47 | CC1CCC(=NNc2ccccc2[N+](=O)[O-])CC1 (stereo not drawn) | 3.64 µM | 
48 | C1=C[C@@H](CNc2nc(-c3ccccn3)cs2)[C@H]2CO[C@@H]1C2 | 11.5 µM | 
49 | CC1CC(Nc2nc(-c3ccccn3)nc3c2CCC3)CC(C)N1 (stereo not drawn) | 12.1 µM | 
50 | O=C1CC2(CCOC2)C(C(=O)Nc2nc(-c3ccccn3)cs2)CN1 (stereo not drawn) | 12.6 µM | 
51 | c1ccc(-c2n[nH]c3ccccc23)nc1 |  | inactive
52 | O=C(O)CSc1ccc([N+](=O)[O-])c2cccnc12 |  | inactive
53 | OCCCN(CCO)c1ccc2ccc3cccnc3c2n1 |  | inactive
54 | O=C(CN1C(=O)COc2ccc([N+](=O)[O-])cc21)Nc1nc(-c2ccccn2)cs1 | 12.4 µM | 
55 | OCCCCNc1ccc2ccc3cccnc3c2n1 | 4.33 µM | 
56 | Clc1cncnc1NN=Cc1ccccn1 | 1.7 µM | 
57 | O=[N+]([O-])c1ncn(Cc2cccc3cccnc23)n1 |  | inactive
58 | Fc1cccc(CNc2nc(-c3ccccn3)nc3c2CCC3)c1F | 6.11 µM | 
59 | Cn1ccc(C23CCC(C2)C3C(=O)Nc2nc(-c3ccccn3)cs2)n1 (stereo not drawn) | 22.2 µM | 
60 | O=C(Cc1ccc(S(=O)(=O)N2CCOCC2)s1)Nc1nc(-c2ccccn2)cs1 |  | inactive
61 | c1ccc(-c2nc3c(c(N4CCCC4)n2)CCC3)nc1 | 17.6 µM | 
62 | CN(C)CCN(C)c1ccc2ccc3cccnc3c2n1 |  | inactive
63 | CO[C@H](C)[C@@H](C)Nc1nc(-c2ccccn2)nc2c1CCC2 | 13.9 µM | 
64 | Cc1nc(SCC(=O)Nc2n[nH]c(-c3ccccn3)n2)n[nH]1 | 15.5 µM | 
65 | c1cc2c(c(-c3cccc4cccnc34)c1)CNC2 |  | inactive
66 | Oc1cccnc1SCc1ccc(F)c2cccnc12 |  | inactive
67 | O=C(CSc1cccc2cccnc12)Nc1cccc(N2CCCC2=O)c1 |  | inactive
68 | CCCN1CCCc2cc(C(C)C)ccc21 |  | inactive
